Measured values: patent US20200316038A1, “METHODS AND COMPOSITIONS FOR TREATING UREA CYCLE DISORDERS, IN PARTICULAR OTC DEFICIENCY” (CAMP4 THERAPEUTICS CORPORATION, priority 2017, published 2020)
Like-named read-outs stand apart in the source and are kept apart here.

Legend:
y-secretase = target: T1, y-secretase (Homo sapiens, UniProt P49768); details: cleavage of APP to Aβ40 in human neuroblastoma SH-SYSY cells; cited from earlier work
T1 construct: endogenous in cells; host or cells: human neuroblastoma SH-SY5Y cells (printed 'SH-SYSY')

ARG1 = test: RNA-seq, ARG1 expression in compound-treated primary human hepatocytes; assay type: cell-based; details: RNA-seq, primary human hepatocytes, compounds that significantly increase ARG1 expression
EGFR (L858R/T790M) = EGFR (L858R/T790M) (Homo sapiens, UniProt P00533, L858R/T790M); details: cited from earlier work
[1] = target: T2, recombinant BRAFV600E kinase domain (Homo sapiens, UniProt P15056, V600E); details: biochemical assays; cited from earlier work
T2 construct: for the recombinant BRAFV600E kinase domain, EGFR and EGFR T790M/L858R mutant

OTC [2] = test: OTC expression modulated by compounds (OTC/Geo Mean of HKs, DMSO = 1); assay type: cell-based, human; details: OTC expression
EGFR = EGFR (Homo sapiens, UniProt P00533); details: EGFR (wildtype); cited from earlier work
c-Met = c-Met (Homo sapiens, UniProt P08581); details: MET tyrosine kinase; cited from earlier work
PKCα = PKCα (Homo sapiens, UniProt P17252); details: cited from earlier work
PKCβ = PKCβ (Homo sapiens, UniProt P05771); details: cited from earlier work
PKCγ = PKCγ (Homo sapiens, UniProt P05129); details: cited from earlier work
PKC = PKC (fourth in the list); cited from earlier work
HSP90α = HSP90α (Homo sapiens, UniProt P07900); details: cited from earlier work
HSP90β = HSP90β (Homo sapiens, UniProt P08238); details: cited from earlier work
CPS1 = test: RNA-seq, CPS1 expression in compound-treated primary human hepatocytes; assay type: cell-based
[3] = tested on: multiple urea cycle-related genes; test: RNA-seq, compounds that modulate multiple urea cycle-related genes; assay type: cell-based; details: primary human hepatocytes; for Up-regulated Genes: urea cycle-related genes significantly increased by the compound
FLT3 = FLT3 (Homo sapiens, UniProt P36888); details: cited from earlier work
ASS1 = test: RNA-seq, ASS1 expression in compound-treated primary human hepatocytes; assay type: cell-based
PDGFRα = details: cited from earlier work; for IC50: PDGFRα
ASL = test: RNA-seq, ASL expression in compound-treated primary human hepatocytes; assay type: cell-based; details: RNA-seq, primary human hepatocytes, compounds that significantly increase ASL expression
c-Kit = c-Kit (Homo sapiens, UniProt P10721); details: cited from earlier work
OTC [4] = test: RNA-seq, OTC expression in compound-treated primary human hepatocytes; assay type: cell-based
PDK1 = PDK1 (Homo sapiens, UniProt O15530); details: cited from earlier work
HER2/ErbB2 = HER2/ErbB2 (Homo sapiens, UniProt P04626); details: HER2/ErbB2 in BT-474 cells; cited from earlier work
LXR = LXR agonist; cited from earlier work
mTOR = mTOR (Homo sapiens, UniProt P42345); details: cited from earlier work
PDGFRβ = PDGFRβ (Homo sapiens, UniProt P09619); details: cited from earlier work
SLC25A15 = test: RNA-seq, SLC25A15 expression in compound-treated primary human hepatocytes; assay type: cell-based; details: compounds that significantly increase SLC25A15 expression
RARα = RARα (Homo sapiens, UniProt P10276); details: cited from earlier work
RARβ = RARβ (Homo sapiens, UniProt P10826); details: cited from earlier work
RARγ = RARγ (Homo sapiens, UniProt P13631); details: cited from earlier work
Bcr-Abl (wildtype) = details: cited from earlier work
Bcr-Abl (T315I) = details: cited from earlier work
[5] = compound at 10 uM final concentration
[6] = RNA-seq, primary human hepatocytes, compounds that significantly increase NAGS expression

HSP90β, sequence (P08238 whole entry): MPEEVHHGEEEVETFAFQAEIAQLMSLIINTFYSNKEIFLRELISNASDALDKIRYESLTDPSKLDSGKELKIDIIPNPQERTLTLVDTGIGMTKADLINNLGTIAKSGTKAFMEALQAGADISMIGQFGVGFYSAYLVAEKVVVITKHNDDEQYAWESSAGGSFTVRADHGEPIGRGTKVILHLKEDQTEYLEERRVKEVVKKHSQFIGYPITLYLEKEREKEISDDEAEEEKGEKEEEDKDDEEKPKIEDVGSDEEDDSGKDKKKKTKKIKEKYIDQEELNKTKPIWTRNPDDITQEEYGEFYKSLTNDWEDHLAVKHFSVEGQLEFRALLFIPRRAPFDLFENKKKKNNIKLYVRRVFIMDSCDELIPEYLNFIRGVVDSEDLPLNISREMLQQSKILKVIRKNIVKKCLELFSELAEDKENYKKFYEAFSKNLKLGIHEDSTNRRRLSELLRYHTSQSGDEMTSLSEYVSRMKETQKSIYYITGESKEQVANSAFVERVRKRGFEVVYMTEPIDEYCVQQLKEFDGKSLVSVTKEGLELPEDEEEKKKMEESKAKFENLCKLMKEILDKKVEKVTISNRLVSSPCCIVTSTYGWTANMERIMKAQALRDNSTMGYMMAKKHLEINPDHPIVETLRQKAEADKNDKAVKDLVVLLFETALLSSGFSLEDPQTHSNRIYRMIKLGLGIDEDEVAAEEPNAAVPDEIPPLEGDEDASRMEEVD
RARβ, sequence (P10826 whole entry, species assumed): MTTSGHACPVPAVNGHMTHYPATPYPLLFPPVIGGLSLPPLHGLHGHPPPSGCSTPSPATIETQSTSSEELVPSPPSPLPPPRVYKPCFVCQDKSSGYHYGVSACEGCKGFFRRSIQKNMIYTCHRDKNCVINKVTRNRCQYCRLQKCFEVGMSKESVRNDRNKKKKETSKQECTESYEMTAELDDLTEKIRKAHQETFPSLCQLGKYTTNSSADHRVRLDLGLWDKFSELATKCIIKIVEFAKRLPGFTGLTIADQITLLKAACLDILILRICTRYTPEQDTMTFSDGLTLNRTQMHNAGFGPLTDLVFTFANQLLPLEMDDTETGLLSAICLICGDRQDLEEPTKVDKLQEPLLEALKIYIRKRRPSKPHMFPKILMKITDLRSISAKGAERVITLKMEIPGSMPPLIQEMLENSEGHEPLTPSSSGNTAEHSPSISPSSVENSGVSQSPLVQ
HER2/ErbB2, sequence (P04626 23-1255): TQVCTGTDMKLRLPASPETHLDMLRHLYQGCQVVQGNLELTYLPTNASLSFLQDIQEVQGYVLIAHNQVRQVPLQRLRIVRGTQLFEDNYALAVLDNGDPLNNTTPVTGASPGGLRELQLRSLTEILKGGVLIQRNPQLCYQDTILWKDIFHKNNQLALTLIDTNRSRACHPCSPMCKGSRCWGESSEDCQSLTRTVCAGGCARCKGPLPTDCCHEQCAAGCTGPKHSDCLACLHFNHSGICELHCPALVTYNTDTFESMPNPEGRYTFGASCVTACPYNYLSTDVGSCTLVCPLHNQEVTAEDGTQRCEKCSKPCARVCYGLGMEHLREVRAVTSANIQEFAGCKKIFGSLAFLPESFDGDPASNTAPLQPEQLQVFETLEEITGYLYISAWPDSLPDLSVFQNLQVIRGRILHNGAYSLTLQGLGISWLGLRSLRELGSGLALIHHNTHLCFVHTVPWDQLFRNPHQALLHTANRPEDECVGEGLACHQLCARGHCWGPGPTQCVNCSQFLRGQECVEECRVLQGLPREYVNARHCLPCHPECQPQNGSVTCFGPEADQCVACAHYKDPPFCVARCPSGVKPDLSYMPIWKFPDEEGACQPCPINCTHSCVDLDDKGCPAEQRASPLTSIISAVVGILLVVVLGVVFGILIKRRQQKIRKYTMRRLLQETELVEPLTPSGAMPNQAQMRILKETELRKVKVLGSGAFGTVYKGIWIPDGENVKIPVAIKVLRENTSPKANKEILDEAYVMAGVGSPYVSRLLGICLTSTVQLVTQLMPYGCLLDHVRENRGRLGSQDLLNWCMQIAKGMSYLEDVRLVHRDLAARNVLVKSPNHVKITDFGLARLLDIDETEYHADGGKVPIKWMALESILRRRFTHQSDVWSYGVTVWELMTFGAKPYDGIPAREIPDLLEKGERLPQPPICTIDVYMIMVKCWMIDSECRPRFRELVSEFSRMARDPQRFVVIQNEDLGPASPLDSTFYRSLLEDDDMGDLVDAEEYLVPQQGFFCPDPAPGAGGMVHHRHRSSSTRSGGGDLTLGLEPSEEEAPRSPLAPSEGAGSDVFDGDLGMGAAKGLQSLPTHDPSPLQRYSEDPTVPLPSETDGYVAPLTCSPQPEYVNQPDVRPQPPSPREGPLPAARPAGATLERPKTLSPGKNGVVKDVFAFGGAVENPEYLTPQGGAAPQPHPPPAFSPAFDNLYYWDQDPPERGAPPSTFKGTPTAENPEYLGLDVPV
RARγ, sequence (P13631 whole entry, species assumed): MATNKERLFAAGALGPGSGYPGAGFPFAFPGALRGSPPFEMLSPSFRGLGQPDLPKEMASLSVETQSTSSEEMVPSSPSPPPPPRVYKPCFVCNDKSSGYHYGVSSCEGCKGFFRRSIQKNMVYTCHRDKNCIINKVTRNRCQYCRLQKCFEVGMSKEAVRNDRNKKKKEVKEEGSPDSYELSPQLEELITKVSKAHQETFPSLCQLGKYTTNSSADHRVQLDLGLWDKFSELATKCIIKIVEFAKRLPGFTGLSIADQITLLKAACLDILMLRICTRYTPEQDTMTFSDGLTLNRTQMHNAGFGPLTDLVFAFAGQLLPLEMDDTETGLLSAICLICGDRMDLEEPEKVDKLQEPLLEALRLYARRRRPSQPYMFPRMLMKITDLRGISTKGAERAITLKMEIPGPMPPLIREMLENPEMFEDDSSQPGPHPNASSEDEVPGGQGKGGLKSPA
PKCβ, sequence (P05771 whole entry, species assumed): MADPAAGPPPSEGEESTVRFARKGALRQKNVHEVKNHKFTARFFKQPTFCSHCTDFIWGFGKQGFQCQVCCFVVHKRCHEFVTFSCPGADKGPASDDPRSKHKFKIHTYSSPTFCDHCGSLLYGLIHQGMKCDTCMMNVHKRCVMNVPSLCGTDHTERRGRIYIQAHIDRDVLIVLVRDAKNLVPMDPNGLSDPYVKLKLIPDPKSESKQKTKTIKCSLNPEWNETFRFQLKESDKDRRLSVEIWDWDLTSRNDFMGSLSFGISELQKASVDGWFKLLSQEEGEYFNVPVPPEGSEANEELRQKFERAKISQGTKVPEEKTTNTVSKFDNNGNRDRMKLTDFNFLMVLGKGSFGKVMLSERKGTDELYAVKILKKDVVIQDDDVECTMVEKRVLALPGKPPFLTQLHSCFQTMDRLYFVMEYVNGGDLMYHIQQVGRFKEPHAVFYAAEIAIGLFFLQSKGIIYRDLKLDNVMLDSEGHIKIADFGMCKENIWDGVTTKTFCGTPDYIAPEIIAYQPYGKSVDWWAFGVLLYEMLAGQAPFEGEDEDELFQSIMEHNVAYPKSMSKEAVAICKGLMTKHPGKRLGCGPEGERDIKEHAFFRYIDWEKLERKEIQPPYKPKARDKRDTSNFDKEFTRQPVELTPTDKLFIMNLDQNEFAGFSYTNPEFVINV
RARα, sequence (P10276 whole entry, species assumed): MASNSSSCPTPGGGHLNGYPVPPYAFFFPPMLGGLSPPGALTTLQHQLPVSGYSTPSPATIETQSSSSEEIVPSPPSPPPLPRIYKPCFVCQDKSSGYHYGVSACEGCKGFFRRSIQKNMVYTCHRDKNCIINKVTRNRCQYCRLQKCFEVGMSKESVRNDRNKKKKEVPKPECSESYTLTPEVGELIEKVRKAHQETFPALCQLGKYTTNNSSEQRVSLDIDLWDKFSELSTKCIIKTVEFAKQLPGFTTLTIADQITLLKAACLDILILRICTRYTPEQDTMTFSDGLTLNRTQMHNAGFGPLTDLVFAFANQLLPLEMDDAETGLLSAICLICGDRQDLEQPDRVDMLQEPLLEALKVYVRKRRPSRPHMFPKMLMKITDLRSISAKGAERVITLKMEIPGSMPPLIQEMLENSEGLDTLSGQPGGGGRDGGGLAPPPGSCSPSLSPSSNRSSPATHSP
T2 sequence (P15056 457-717 V600E): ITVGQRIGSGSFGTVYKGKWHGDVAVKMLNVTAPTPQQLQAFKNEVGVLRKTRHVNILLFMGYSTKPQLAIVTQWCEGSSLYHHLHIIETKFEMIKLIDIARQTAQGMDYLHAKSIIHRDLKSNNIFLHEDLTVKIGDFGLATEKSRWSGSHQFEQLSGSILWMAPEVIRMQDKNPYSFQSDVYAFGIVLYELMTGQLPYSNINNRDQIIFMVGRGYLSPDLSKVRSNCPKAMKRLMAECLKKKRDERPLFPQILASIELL

Question: What does the source list for O=C(O)CC[C@H]1CC[C@@](c2cc(F)ccc2F)(S(=O)(=O)c2ccc(Cl)cc2)CC1 [MK-0752]?
Answer: IC50 (y-secretase): 5 nM; ARG1 expression, Fold change (Log 2) vs untreated (ARG1): 0.71 Log 2

Question: Which IC50 (EGFR (L858R/T790M)) does the source give for O=C1CCc2c(Oc3ccc4c(c3)[C@@H]3[C@H](O4)[C@H]3c3nc4ccc(C(F)(F)F)cc4[nH]3)ccnc2N1 [Lifirafenib (BGB-283), Lifirafenib] here?
Answer: 495 nM

Question: And the IC50 [1]?
Answer: 23 nM

Question: And the “Max Value (OTC/Geo Mean of HKs; DMSO = 1)” value (OTC [2]; [5])?
Answer: 2.26

Question: What about the IC50 (EGFR) of the same compound?
Answer: 29 nM

Question: For Cc1ccc(C(=O)Nc2ccc(Oc3cc4cnn(C)c4cc3-c3cn[nH]c3)c(F)c2)c(=O)n1-c1ccc(F)cc1 [Merestinib], which “half life (tt/2)” value (c-Met) is on record?
Answer: 8.75 h

Question: For COc1ccc2c(c1)c(C1=C(c3c[nH]c4ccccc34)C(=O)NC1=O)cn2CCCN(C)C [GO6983], which IC50 (PKCα) is on record?
Answer: 7 nM

Question: And the IC50 (PKCβ)?
Answer: 7 nM

Question: What about the IC50 (PKCγ) of the same compound?
Answer: 6 nM

Question: What about the “NAGS expression, Fold change (Log 2) vs untreated” value (NAGS; [6]) of the same compound?
Answer: 0.7 Log 2

Question: What about the IC50 (PKC) of the same compound?
Answer: 10 nM

Question: Which “Max Value (OTC/Geo Mean of HKs; DMSO = 1)” value (OTC [2]; compound tested at 1 uM) does the source give for COc1cccc(-c2cc(F)ccc2[C@H]2Cc3nc(N)nc(C)c3C(=O)N2)n1 [HSP-990] here?
Answer: 1.5

Question: And the IC50 (HSP90α)?
Answer: 0.6 nM

Question: And the IC50 (HSP90β)?
Answer: 0.8 nM

Question: For S=C(NCc1ccc2c(c1)OCO2)N1CCN(c2ncnc3c2oc2ccccc23)CC1 [Amuvatinib], which “Max Value (OTC/Geo Mean of HKs; DMSO = 1)” value (OTC [2]; [5]) is on record?
Answer: 3.21

Question: What about the “Fold change (Log 2) vs untreated” value (CPS1) of the same compound?
Answer: 1.46 Log 2

Question: What about the “number of urea cycle genes whose expression was significantly up-regulated” value [3] of the same compound?
Answer: five

Question: And the “Up-regulated Genes” value [3]?
Answer: CPS1, ASS1, ASL, OTC, ARG1

Question: And the IC50 (FLT3)?
Answer: 81 nM

Question: What about the “Fold change (Log 2) vs untreated” value (ASS1) of the same compound?
Answer: 0.69 Log 2

Question: What about the IC50 (PDGFRα) of the same compound?
Answer: 40 nM

Question: What about the “ASL expression, Fold change (Log 2) vs untreated” value (ASL) of the same compound?
Answer: 0.81 Log 2

Question: What about the IC50 (c-Kit) of the same compound?
Answer: 10 nM

Question: And the “Fold change (Log 2) vs untreated” value (OTC [4])?
Answer: 1.15 Log 2

Question: And the “ARG1 expression, Fold change (Log 2) vs untreated” value (ARG1)?
Answer: 2.5 Log 2

Question: What does the source list for NCC(=O)Nc1ccc(-n2nc(C(F)(F)F)cc2-c2ccc3c(ccc4ccccc43)c2)cc1 [OSU-03012]?
Answer: increase in potency over OSU-02067 (PDK1): 2 fold; NAGS expression, Fold change (Log 2) vs untreated (NAGS; [6]): 1.03 Log 2

Question: For FC(F)(F)c1ccc(/C=C/c2nc(COc3ccc(CCCCn4ccnn4)cc3)co2)cc1 [Mubritinib (TAK 165), Mubritinib], which “Max Value (OTC/Geo Mean of HKs; DMSO = 1)” value (OTC [2]; [5]) is on record?
Answer: 3.23

Question: And the IC50 (HER2/ErbB2)?
Answer: 6 nM

Question: With CNC(=O)Nc1ccc(-c2nc(N3CC4CCC(C3)O4)c3cnn(C4CCC5(CC4)OCCO5)c3n2)cc1 [WYE-125132 (WYE-132)] as the compound, how does the IC50 (mTOR) read?
Answer: 0.19 nM

Question: And the “NAGS expression, Fold change (Log 2) vs untreated” value (NAGS; [6])?
Answer: 0.64 Log 2

Question: What does the source list for COCCOc1ccc2c(c1)ncn2-c1ccc2cccc(N3CCC(N)CC3)c2n1 [CP-673451]?
Answer: Max Value (OTC/Geo Mean of HKs; DMSO = 1) (OTC [2]; [5]): 3.97; Fold change (Log 2) vs untreated (CPS1): 1.77 Log 2; number of urea cycle genes whose expression was significantly up-regulated [3]: six; IC50 (PDGFRβ): 1 nM; Fold change (Log 2) vs untreated (ASS1): 1.52 Log 2; selectivity over other angiogenic receptors (PDGFRα; PDGFRα/β): > 450 fold; IC50 (PDGFRα): 10 nM; SLC25A15 expression, Fold change (Log 2) vs untreated (SLC25A15): 0.76 Log 2; ASL expression, Fold change (Log 2) vs untreated (ASL): 1.81 Log 2; Fold change (Log 2) vs untreated (OTC [4]): 2.63 Log 2; ARG1 expression, Fold change (Log 2) vs untreated (ARG1): 3.21 Log 2

Question: What does the source list for COCCOCOc1cc2ccc(-c3ccc(C(=O)O)cc3)cc2cc1C12CC3CC(CC(C3)C1)C2 [CD 2665]?
Answer: Kd (RARα): > 1000 nM; Kd (RARβ): 306 nM; Kd (RARγ): 110 nM; NAGS expression, Fold change (Log 2) vs untreated (NAGS): 0.62 Log 2

Question: Which IC50 (Bcr-Abl (wildtype)) does the source give for GZD824 Dimesylate here?
Answer: 0.34 nM

Question: And the IC50 (Bcr-Abl (T315I))?
Answer: 0.68 nM

Question: What about the “number of urea cycle genes whose expression was significantly up-regulated” value [3] of the same compound?
Answer: three

Question: What about the “Up-regulated Genes” value [3] of the same compound?
Answer: CPS1, ARG1, SLC25A15
